Converted amounts (≈) assume the structure as drawn.
Legend:
S. mutans = assay: Anti-bacterial activity (MIC) against S. mutans; type: cell-based, Streptococcus mutans; conditions: for MIC: Streptococcus mutans
[1] = tested on: Clinical isolated drug-resistant C. albicans; assay: Sensitivity of clinical isolated drug-resistant C. albicans; type: cell-based, Candida albicans
Procedure: (§1) Bioassays were conducted to further characterize these two compounds.

C. albicans = assay: Anti-fungal activity (MIC) against C. albicans; type: cell-based, Candida albicans; conditions: for MIC: Candida albicans
Procedure: The compositions of the present invention usually have an anti-microbial effect, e.g., anti-G^+ bacteria activity, anti-G^− bacteria activity, anti-fungus activity or effect on bacterial quorum sensing. Methods or assays for testing the anti-microbial activity of a composition are readily available to one skilled in the art. For example, compositions of the present invention can be incubated with a bacterial or fungous culture, and the bacterial or fungous growth can be subsequently examined with a plate reader. Compositions of the present invention can also be examined for their effect on bacterial quorum sensing using either an acyl-homoserine lactone quorum sensing reporter system or a luxS quorum sensing reporter system.
as §1

bacteria = assay: Enhancement of activity of other antibiotics (synergistic effect) in the bioassay; type: cell-based
From the text: Perilla was selected for two types of bioactivity. […] The second is its ability to enhance other antibacterial activities through some kind of synergistic effect. When the crude extract was mixed with antibiotics in the bioassay, it could enhance the activity of other antibiotics at a concentration at least 10 times lower than its MIC.

[2] = tested on: methicillin resistant Staphylococcus aureus; assay: Sensitivity of methicillin resistant Staphylococcus aureus; type: cell-based
[3] = tested on: Vancomycin resistant Enterococci; assay: Sensitivity of Vancomycin resistant Enterococci; type: cell-based

| SMILES | MIC (S. mutans) [µg/mL] | sensitivity of clinical isolated drug-resistant C. albicans to treatment [1] | fungicidal effect (C. albicans) | MIC (C. albicans) [µg/mL] | other results |
| --- | --- | --- | --- | --- | --- |
| CC/C=C\C/C=C\C/C=C\CCCCCCCC(=O)O [Linolenic acid, (9Z,12Z,15Z)-9,12,15-octadecatrienoic acid] | 10 (≈ 35.9 µM) | – | – | – | – |
| CC1OC(OC2[C@H](O[C@H]3CC[C@@]4(C)C(=CCC5C6CC7OC8(CC[C@@H](C)CO8)[C@@H](C)C7[C@@]6(C)CCC54)C3)OC(CO)[C@@H](O[C@@H]3O[C@@H](CO)[C@@H](O)[C@H]3O)[C@@H]2O)C(O)C(O)C1O (stereo partly drawn) [Polyphyllin D, (3β,25R)-spirost-5-en-3-yl O-α-L-arabinofuranosyl-(1→4)-O-[6-deoxy-α-L-mannopyranosyl-(1→2)]-β-D-glucopyranoside] | – | still sensitive | fungicidal effect | ~2 (≈ 2.34 µM) | – |
| C=C(C)C1CC=C(C=O)CC1 (centres unmarked) [perillaldehyde, 4-(1-methylethenyl)-1-cyclohexene-1-carboxaldehyde] | 10000 (≈ 66600 µM) | – | – | – | ability to enhance activity of other antibiotics (bacteria): enhance activity of other antibiotics in a dose-dependent manner |
| C=C(C)[C@H](CC=C(C)C)Cc1c(O)cc(OC)c2c1O[C@H](c1ccc(O)cc1O)CC2=O [kurarinone, 2-(2,4-dihydroxyphenyl)-2,3-dihydro-7-hydroxy-5-methoxy-8-[5-methyl-2-(1-methylethenyl)-4-hexenyl]-4H-1-benzopyran-4-one] | 4 (≈ 9.12 µM) | – | – | – | sensitivity of methicillin resistant Staphylococcus aureus to the compound [2]: sensitive; bactericidal effect (S. mutans; organism not given): bactericidal effect; sensitivity of antimicrobial activity to environmental changes (S. mutans; pH (4.8-7.4), salt composition (Na, K, Ca), salt concentrations, oxygen levels (anaerobic and aerobic), temperature (120° C.)): insensitive; sensitivity of Vancomycin resistant Enterococci to the compound [3]: sensitive |
| CC1OC(OC2C(O)[C@H](OC3OC(C)C(O)C(O)C3O)C(CO)O[C@H]2O[C@H]2CC[C@@]3(C)C(=CCC4C5CC6OC7(CC[C@@H](C)CO7)[C@@H](C)C6[C@@]5(C)CCC43)C2)C(O)C(O)C1O (stereo partly drawn) [Dioscin, (3β,25R)-spirost-5-en-3-yl O-6-deoxy-α-L-mannopyranosyl-(1→2)-O-[6-deoxy-α-L-mannopyranosyl-(1→4)]-β-D-glucopyranoside] | – | still sensitive | fungicidal effect | ~4 (≈ 4.6 µM) | – |
